Experiments:
HeLa cells = test: Effect of Z-VD-fmk on TNF-α-induced cell death in HeLa cells (calcein AM, Example 25); format: cell-based; settings: TNF-α 25 ng/mL + CHX 30 μg/mL, zero to 500 nM tested
Description: Tumor necrosis factor alpha (TNF-α) can trigger apoptosis in a number of cell types by initiating the caspase cascade and its apoptosis inducing activity can be inhibited by peptide-based caspase inhibitors. However, high concentrations of the inhibitors (50 μM or greater) is required to have good anti-apoptotic effect. HeLa cells, a cell line commonly employed in TNF-α cell death studies, was used here to determine the anti-apoptotic potency of Z-VD-fmk.
HeLa cells were seeded in 48-well multidishes at a density of 50,000 cells per well 24 hours before treatment. They were then pre-incubated with varying concentrations of Z-VD-fmk for 2 hours and challenged with TNF-α (25 ng/mL) and cycloheximide (CHX; 30 μg/mL). The cultures were incubated for an additional 24 hours and dead cells were removed by two washes with PBS. The density of surviving cells was then measured by incubating each culture for 45 minutes with calcein AM, a profluorescent dye which is taken up by living cells and converted to a fluorescent product. The resulting data were expressed as % control values (control values were cells incubated with cycloheximide but without TNF-α).
Z-VD-fmk provided good cytoprotection at concentrations approaching 100 nM.

[1] = system: PARP cleavage in Jurkat cells; test: Inhibition of PARP cleavage in antiFas-treated Jurkat cells (Example 22, Western blot); format: cell-based, human; settings: for inhibition of PARP cleavage: antiFas-treated Jurkat cells
Text: The cleavage of the enzyme poly(ADP)ribose polymerase (PARP) appears to occur in all cells in which the caspase proteolytic cascade is activated. For this reason, PARP cleavage is widely used as a biochemical marker for caspase-mediated apoptosis. The ability of a cytoprotective drug to block PARP cleavage is considered to be an indication of the drug's ability to inhibit the caspase proteolytic cascade and, in particular, CPP32 (caspase-3), the main PARP protease. The ability of Cbz-Val-Asp(OMe)-CH2F to inhibit PARP cleavage was examined during Fas-mediated apoptosis of Jurkat cells, a human T-cell line. This cell culture model of apoptosis is well-characterized and is known to involve activation of at least two caspases, caspase-3 (CPP32) and caspase-8 (FLICE/MACH).
For PARP cleavage assays, Jurkat cells were seeded at a density of 500,000 cells per well in six-well multidishes in RPMI 1640 medium containing 10% FBS. The cells were pre-incubated with Cbz-Val-Asp(OMe)-CH2F or other test compounds for 2 hours at 37° C. in a CO2 incubator and then a monoclonal antibody to Fas was added at a final concentration of 500 ng/mL. Incubation at 37° C. in a CO2 incubator was continued for an additional 4 hours. […] An amount of lysate corresponding to 10 to 20 μg of protein was loaded on a 7.5% SDS polyacrylamide gel and electrophoresed for 2 to 2.5 hrs at 25 mA. The protein was then transferred to a PVDF membrane, probed with a rabbit polyclonal antibody to PARP, and visualized using chemiluminescence.
Jurkat cells were pre-incubated with 0.5, 5, or 50 μM of the following compounds: Cbz-Val-Asp(OMe)-CH2F (compound 1); BOC-Asp(OMe)-CH2F (compound 5); Cbz-Asp-α-([2,6-dichlorobenzoyloxy]-methyl ketone) (compound 6), Cbz-Glu(OMe)-Val-Asp(OMe)-CH2F (compound 3), Cbz-Asp(OMe)-Glu(OMe)-Val-Asp(OMe)-CH2F (SEQ ID NO:1) (compound 2), Cbz-Ile-Glu(OMe)-Thr-Asp(OMe)-CH2F (SEQ ID NO:2) (compound 4), or Cbz-Val-Ala-Asp(OMe)-CH2F (compound 7). The cells were then treated with antiFas and processed for Western Blotting.

| Compound | concentration providing good cytoprotection against TNF-α-induced cell death (HeLa cells) [nM] | inhibition of PARP cleavage ([1]; 0.5 μM) | inhibition of PARP cleavage ([1]; 5 μM) | inhibition of PARP cleavage ([1]; 50 μM) | concentration blocking the caspase proteolytic cascade in intact cells, fold lower than other known caspase inhibitors ([1]; Jurkat cells) |
| --- | --- | --- | --- | --- | --- |
| CC(C)[C@H](NC(=O)OCc1ccccc1)C(=O)NC(CC(=O)O)C(=O)CF (stereo partly drawn) [Cbz-Val-Asp-CH2F, Z-Val-Asp-fmk] | ~100 | – | – | – | – |
| COC(=O)CC(NC(=O)C(NC(=O)OCc1ccccc1)C(C)C)C(=O)CF (stereo not drawn) [Cbz-Val-Asp(OMe)-CH2F, Z-Val-Asp-fmk Methyl Ester] | – | significant inhibition | completely inhibited | completely inhibited | at least 10 fold |

Source: patent US6949516B2, “Dipeptide apoptosis inhibitors and the use thereof” (Cytovia, Inc., priority 1997, dated 2005)
